In one assay the target is KDR (VEGFR2) (Homo sapiens (Human), UniProt P35968). Description: Luminescence-based KDR kinase assay (Km ATP), ADP-Glo. Type of assay: biochemical. The following applies: compound at 100 nM concentration. The method, then: (§1) Kinase activity of KDR was measured using the ADP-Glo system (Promega). Compounds were diluted in DMSO at 100 μM. 20 nL of compound or DMSO only (high control, HC) were added to a 384-well plate (OptiPlate-384, PerkinElmer) using an Echo550 liquid handler (Labcyte). 15 μL of kinase solution (10 mM MgCl2, 0.01% Brij-35, 2 mM DTT, 0.05% BSA, 1 mM EGTA, 0.05% CHAPSO, 50 mM HEPES pH 7.5, and 0.665 nM KDR [Carna Biosciences]) were added to each well of the 384-well plate containing the compounds. No enzyme control wells were included (low control, LC). The plate was incubated at room temperature for 30 minutes. 5 μL of a second solution containing 10 mM MgCl2, 0.01% Brij-35, 2 mM DTT, 0.05% BSA, 1 mM EGTA, 50 mM HEPES pH 7.5, 6 μM Peptide 22 (Perkin Elmer, Cat No 760366), and 400 μM ATP were added to each well to start the kinase reaction. The plate was incubated for 90 minutes at room temperature. 20 μL of ADP-Glo reagent (Promega) were then added to each well and the plate was incubated for 40 minutes at room temperature. […] During this step, ADP was converted to ATP, a substrate for luciferase, to produce luminescence signal. Luminescence was measured on an Envision plate reader (Perkin Elmer). Luminescence signal positively correlates with kinase activity. The percent inhibition of kinase activity was calculated as follows: percent inhibition=100×(LumHC−LumSample)/(LumHC−LumLC). […]
KDR (VEGFR2), sequence (P35968 20-1356): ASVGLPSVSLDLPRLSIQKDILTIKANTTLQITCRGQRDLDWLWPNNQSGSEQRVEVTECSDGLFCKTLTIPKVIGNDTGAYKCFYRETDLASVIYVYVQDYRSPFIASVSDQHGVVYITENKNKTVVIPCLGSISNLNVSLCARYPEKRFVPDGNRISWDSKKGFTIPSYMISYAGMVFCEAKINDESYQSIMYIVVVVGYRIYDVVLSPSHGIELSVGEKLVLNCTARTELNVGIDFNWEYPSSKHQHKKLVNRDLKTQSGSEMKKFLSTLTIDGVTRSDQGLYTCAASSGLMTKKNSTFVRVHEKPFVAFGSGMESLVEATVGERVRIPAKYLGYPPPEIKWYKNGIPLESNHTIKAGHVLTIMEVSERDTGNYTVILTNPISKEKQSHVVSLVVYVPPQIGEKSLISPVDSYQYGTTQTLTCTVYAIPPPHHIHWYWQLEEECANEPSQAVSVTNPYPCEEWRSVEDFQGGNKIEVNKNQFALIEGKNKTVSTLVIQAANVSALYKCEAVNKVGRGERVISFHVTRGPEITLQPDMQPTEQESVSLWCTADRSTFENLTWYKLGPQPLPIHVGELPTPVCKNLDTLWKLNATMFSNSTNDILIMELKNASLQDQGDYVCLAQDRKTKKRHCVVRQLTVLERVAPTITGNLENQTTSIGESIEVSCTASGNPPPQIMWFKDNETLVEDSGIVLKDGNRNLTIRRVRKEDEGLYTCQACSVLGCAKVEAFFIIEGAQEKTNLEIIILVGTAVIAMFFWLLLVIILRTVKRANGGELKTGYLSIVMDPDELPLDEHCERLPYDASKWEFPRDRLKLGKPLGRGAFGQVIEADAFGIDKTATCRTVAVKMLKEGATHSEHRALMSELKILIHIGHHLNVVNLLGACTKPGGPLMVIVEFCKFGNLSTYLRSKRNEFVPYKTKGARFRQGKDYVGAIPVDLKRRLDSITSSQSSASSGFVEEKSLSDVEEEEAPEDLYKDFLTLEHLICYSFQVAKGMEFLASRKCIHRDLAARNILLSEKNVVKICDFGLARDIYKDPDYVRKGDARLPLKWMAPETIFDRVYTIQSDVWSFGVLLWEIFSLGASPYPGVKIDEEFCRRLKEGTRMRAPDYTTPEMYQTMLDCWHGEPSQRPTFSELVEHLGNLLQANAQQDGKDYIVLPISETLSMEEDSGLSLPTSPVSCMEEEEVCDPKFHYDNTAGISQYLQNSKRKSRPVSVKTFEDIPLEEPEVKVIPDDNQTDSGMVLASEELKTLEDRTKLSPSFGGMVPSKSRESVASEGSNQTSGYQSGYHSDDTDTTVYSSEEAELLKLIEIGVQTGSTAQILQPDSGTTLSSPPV
A general note: In ADP-Glo the light output rises with the ADP produced.

For the next assay, the target named is SRC (Homo sapiens (Human), UniProt P12931). Description: Luminescence-based SRC kinase assay (Km ATP), ADP-Glo. The following applies: compound at 100 nM concentration. Type of assay: biochemical. The method, then:
as §1, with “SRC” for “KDR”, “EGTA,” for “EGTA, 0.05% CHAPSO,”, “0.532” for “0.665”, “4” for “22”, “760348),” for “760366),”, “200” for “400”

For assay [1], the system named is phosphorylated ERK (pERK). Nature of the assay: Detection of phosphorylated ERK (pERK), AlphaLISA in A375 cells. It counts as cell-based. The following applies: Homo sapiens, A-375, 4 h, four hours incubation, inhibition of ERK phosphorylation, read-out: PERK ELISA (IC50). On the procedure:
A375 cells were counted and seeded at 10,000 cells/well in 384 well plates (Corning 3764) and allowed to adhere overnight.
Compounds were dissolved and serially diluted in DMSO. The compounds were then added, mixed, and incubated for four hours at 37° C., 5% CO2. Compounds were added using four-fold dilutions at final concentrations ranging from 10 μM to 0.01 nM. DMSO only and 10 uM staurosporine were added as high and low controls.
Following the four-hour incubation with compounds, cell lysates were prepared and AlphaLISA assay measuring phosphorylated ERK was performed. Media was removed using the Apricot Designs pipettor. Lysis buffer was made from 1× AlphaLISA SureFire Assay Kit (AlphaLISA SureFire Ultra pERK 12 (Thr202/Tyr204) ALSU-PERK-A50K) lysis buffer with protease and phosphatase inhibitors. Cells were lysed by adding 10 uL to all the wells and mixed for 40 minutes on a plate shaker. 10 uL cell lysate was transferred to a new Optiplate (PerkinElmer 6007290) and incubated with 5 uL 1× acceptor mix for 2 hours in the dark. 5 uL of 1× donor mix was added to all wells and mixed by shaking followed by overnight incubation in the dark.
pERK AlphaLISA signal was read on the Envision using standard AlphaLISA settings. Percent inhibition of ERK phosphorylation was calculated by % Inhibition=100×(LumHC−LumSample)/(LumHC−LumLC). The low and high controls (LC/HC) are generated from lysate from wells with cells treated with DMSO or […] Staurosporine (BioAustralis, cat #BIA-S1086), […]. IC50 values were calculated by fitting the Curve using XLfit (v5.3.1.3), equation 201: Y=Bottom+(Top−Bottom)/(1+10^((Log IC50−X)*HillSlope)).
On the technique in general: In Alpha technology, singlet oxygen from a donor bead excites a nearby acceptor bead.

pIC50: −log10 of the molar value.

SRC, sequence (P12931 whole entry): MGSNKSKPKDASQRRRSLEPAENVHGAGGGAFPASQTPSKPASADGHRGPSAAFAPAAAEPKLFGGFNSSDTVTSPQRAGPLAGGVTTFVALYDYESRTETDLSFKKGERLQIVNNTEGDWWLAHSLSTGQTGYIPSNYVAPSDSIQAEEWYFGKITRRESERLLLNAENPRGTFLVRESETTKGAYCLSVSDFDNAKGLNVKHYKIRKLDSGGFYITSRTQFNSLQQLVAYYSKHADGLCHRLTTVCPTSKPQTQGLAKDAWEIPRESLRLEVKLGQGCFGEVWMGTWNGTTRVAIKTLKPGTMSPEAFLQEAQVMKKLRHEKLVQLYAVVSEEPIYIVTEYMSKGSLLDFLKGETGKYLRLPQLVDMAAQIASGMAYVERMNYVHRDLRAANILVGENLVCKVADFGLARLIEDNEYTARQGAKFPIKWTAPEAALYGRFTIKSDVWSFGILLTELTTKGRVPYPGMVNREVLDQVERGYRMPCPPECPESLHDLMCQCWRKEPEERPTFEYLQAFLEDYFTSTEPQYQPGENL

As usually defined, the inhibition is the relative decrease from the control value, in per cent. Read a low inhibition as little suppression. In general, pIC50 refers to the negative decadic logarithm of the IC50, by convention in mol/L. Turning to `Cc1c(F)cncc1-c1cc2cnc(NC(=O)[C@@H]3C[C@@H]3F)cc2n(C)c1=O` [Compound 28, (1S,2S)-2-fluoro-N-[3-(5-fluoro-4-methylpyridin-3-yl)-1-methyl-2-oxo-1,6-naphthyridin-7-yl]cyclopropane-1-carboxamide], the inhibition at 0.1 µM against KDR (VEGFR2) worked out at 27%; against SRC, 48%. In addition, the pIC50 in assay [1] was 6.84.

`Cc1c(F)cncc1-c1cc2cnc(NC(=O)C3CC3)cc2n(C)c1=O` [Compound 2, N-[3-(5-fluoro-4-methylpyridin-3-yl)-1-methyl-2-oxo-1,6-naphthyridin-7-yl]cyclopropanecarboxamide]: the inhibition at 0.1 µM was found to be 32% against KDR (VEGFR2) and 77% at SRC. The pIC50 in assay [1] is 6.72.

For the origin of these results see patent US20240287062A1, “NAPHTHYRIDONE COMPOUNDS FOR INHIBITION OF RAF KINASES AND/OR BCR-ABL TYROSINE KINASES” (Enliven Inc., priority 2021, published 2024).
